Like-named read-outs stand apart in the source and are kept apart here. A value given as a limit tells only on which side of the number the result lay.

Data set [1] relates to KB-8-5 (MDR1+). The data set is described as follows: Cell survival assay (SRB), KB-8-5 (MDR1+).
Data set [2] deals with KB-V1 (MDR1++).
For another data set, the system named is KB-3-1. The data set is described as follows: Cell survival assay (SRB), KB-3-1. In kind it is cell-based, human. An outline of the steps: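 IC50 for 50% growth inhibition after 3-day compound exposure, tested in duplicate. SRB protein staining of TCA-fixed cells (10% TCA, 1 hr, 4 °C), solubilised in Tris base and read by absorbance, was used as the survival read-out, with KB-3-1 grown in 20% FCS.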

Data set [3] has as its system KB-V1 (MDR1++). The data set is described as follows: Cell survival assay (SRB), KB-V1 (MDR1++).
Data set [4] concerns KB-8-5 (MDR1+).
The next data set deals with S1. The data set is described as follows: Cell survival assay (SRB), S1. In kind it is cell-based. The following applies: Homo sapiens; S1 parental; Table 5; read-out: S1 IC50, nM (N). The source says:
(§1) Cells lines with previously known mechanisms of resistance. […] Res. 8: 207-218,1996); KB-3-1 (parental derived from an epidermoid carcinoma), KB-8.5, KB-V1 (Akiyama S-I, Fojo A, Hanover J A, Pastan I, Gottesman M M. Isolation and genetic characterization of human KB cell lines resistant to multiple drugs. Somatic Cell Mol. Gen., 11: 117-126,1985; Shen D-W, Cardarelli C, Hwang J, Cornwell M, Richert N, Ishii S, Pastan I, Gottesman MM. […] J. Biol. Chem., 261: 7762-7770, 1986); and HL-60 (parental derived from human leukemia) and HL60/AR (McGrath T., Center M. S. Adriamycin resistance in HL60 cells in the absence of detectable P-glycoprotein. Biochem. Res. Commun., 145:1171-1176,1987); A549 and A549.EpoB40 (He L., Yang C.-P.H., Horwitz S. B. Mutations in p-tubulin map to domains involved in regulation of microtubule stability in epothilone-resistant cell lines. Molecular Cancer Therapeutics. 1: 3-10, 2001). HCT-15 human colon carcinoma and DLD-1 human colon carcinoma are obtained from American Tissue Culture Collection. The MX-1W carcinoma is a Wyeth variant orginally obtained as MX-1 breast carcinoma from the National Cancer Institute. Cell lines selected for resistance to Representative Example 129. KB-3-1 cells are selected for resistance to Example 129 by chronically exposing cells to increasing concentrations of Example 129.
(§2) 2.2. Cell Survival Assay: Standard Pharmacological Test Procedure. The concentration of candidate inhibitor required to inhibit 50% of cell growth (IC50) is done according to previously reported methods. […] Compounds are serially diluted into media as 2× stocks and 100 μl added to cells in duplicate. Compounds are incubated with cells for 3 days. At the end of the incubation period the sulforhodamine B (SRB) assay, which measures protein content as an assessment of cell survival, is performed as described previously (Skehan P, Storeng R, Scudiero D, Monks A, McMahon J, Vistica D, Warren J T, Bokesch H, Kenney S, Boyd MR. New calorimetric cytotoxicity assay for anticancer-drug screening. J Natl Cancer Inst 1990 Jul 4;82(13):1107-12) with some modification as follows. For KB-3-1 cells with 20% FCS, media is gently decanted and replaced with 200 μl of serum-free media mixed with cold 50% TCA for a final concentration of 10% TCA. The plates are incubated for 1 hr at 4° C., followed by washing 5 times in cold distilled water, then air dried overnight. The fixed cells are stained for 10 min with 80 μl of 0.04% SRB solution prepared in 1% glacial acetic acid. Stain is discarded and plates washed 5 times in 1% glacial acetic acid, then air-dried until completely dry. Stained cell product is dissolved in 150 μl of 10 mM Trizma Base and placed on a shaker for 20 minutes until fully dissolved. Absorbance is read on a Victor V multi-label plate reader (Perkin Elmer, Gaithersburg, Md.).

In another data set the test system is HL60. The data set is described as follows: Cell survival assay (MTS), HL60. The data set is classed as cell-based. The following applies: Homo sapiens, HL-60; HL60 parental; Table 5; read-out: HL60 IC50, nM (N).
Another data set has as its system S1-M1-3.2 (MXR). Description: Cell survival assay, S1-M1-3.2 (MXR). In kind it is cell-based, human.
Description: as §1, §2
(§3) J. Cell Science,113: 2011-2021, 2000). It was unknown whether the hemiasterlin family of peptides interact with these drug pumps.

For another data set, the system named is HL60/AR (MRP1). Description: Cell survival assay, HL60/AR (MRP1).
Description: as §1, §2, §3

A further data set has as its system KB-HTI-4.0. The data set is described as follows: Cell survival assay, KB-3-1 line made resistant to Example 129 (KB-HTI-4.0). In kind it is cell-based, human. The conditions noted are these: for IC50: KB-3-1 line made resistant to Example 129, Table 8, read-out: KB-HTI-4.0 IC50; for (RR) relative resistance vs. parental cells: KB-HTI-4.0 vs KB-3-1.
Description: as §1, §2
Cells are selected for resistance to Example 129 to understand the frequency and mechanistic basis of resistance.

Another data set has as its system A549.EpoB40. In kind it is cell-based. The following applies: vs A549; below 1 = sensitive.
Description: as §1
as §2, with “Stained cell product is dissolved in 150 μl of 10 mM Trizma Base and placed on a shaker for 20 minutes until fully dissolved.” left out

[5] abbreviates: KB-3-1 cells (paclitaxel-sensitive parent), read-out: In vitro IC50 (nM) KB-3-1.

Take `CN[C@H](C(=O)N[C@@H](CCC(=O)O)C(=O)N(C)[C@H](/C=C(\C)C(=O)O)C(C)C)C(C)(C)c1ccccc1` [Example 139, N,β,β-trimethyl-L-phenylalanyl-N^1-[(1S,2E)-3-carboxy-1-isopropyl-2-butenyl]-N^1-methyl-L-alpha-glutamine]: the “Ratio KB85/KB” value with KB-8-5 (MDR1+) [1] turned out to be 1.9. Besides, the figures for the IC50 with KB-V1 (MDR1++) [2], with KB-3-1 (setting [5]) and in the data set with KB-8-5 (MDR1+) [4] were at least 3000 nM, 503 nM and 975 nM, respectively. The “Ratio KBV1/KB” value in the data set with KB-V1 (MDR1++) [3] turned out to be 6.0.

As for `COc1cccc2c1C(=O)c1c(O)c3c(c(O)c1C2=O)C[C@@](O)(C(=O)CO)C[C@@H]3O[C@H]1C[C@H](N)[C@H](O)[C@H](C)O1` [adriamycin], the IC50 in the data set on KB-8-5 (MDR1+) [1] (Homo sapiens, MDR1, read-out: KB-8-5 (MDR1+) IC50, nM (N)) amounted to 658 ± 483 nM; in the data set on S1, 221 ± 113 nM; in the data set on HL60 it was 24.2 ± 6.8 nM; in the data set with S1-M1-3.2 (MXR) (Homo sapiens, S1-M1-3.2, MXR over-expression, Table 5, read-out: S1-M1-3.2 (MXR) IC50, nM (N)) it was 11500 ± 367 nM; in the data set on KB-3-1 (Homo sapiens, KB-3-1 parental, Table 3, read-out: KB-3-1 IC50, nM (N)), 43.3 ± 32 nM; in the data set with KB-3-1 (Homo sapiens, KB-3-1 parental, Table 8, read-out: KB-3-1 IC50), 33.9 ± 21.2 nM. Besides, the IC50 in the data set with KB-V1 (MDR1++) [3] (Homo sapiens, read-out: KB-V1 (MDR1++) IC50, nM (N)) was 11500 ± 9670 nM; in the data set with HL60/AR (MRP1) (Homo sapiens, HL-60/AR, read-out: HL60/AR (MRP1) IC50, nM (N)), above 3000 nM; with KB-HTI-4.0 (Homo sapiens), 552 ± 111 nM. The “RR, relative resistance” value is 15 with KB-8-5 (MDR1+) [1] (IC50 KB-8-5 / IC50 KB-3-1, Table 3); 52 in the data set on S1-M1-3.2 (MXR) (IC50 S1-M1-3.2 / IC50 S1); 265 in the data set with KB-V1 (MDR1++) [3] (IC50 KB-V1 / IC50 KB-3-1, Table 3); above 124 in the data set with HL60/AR (MRP1) (IC50 HL60/AR / IC50 HL60). Further, the “resistance of KB-8-5 cells” value in the data set on KB-8-5 (MDR1+) [1] (KB-8-5 (KB-85) vs KB-3-1, in vitro) was found to be 15 fold. In the data set with KB-HTI-4.0, the “(RR) relative resistance vs. parental cells” value is “(16)”.

`CN[C@@H](C(=O)N[C@H](C(=O)N(C)[C@H](/C=C(\C)C(=O)O)C(C)C)C(C)(C)C)C(C)(C)c1ccc(OC(C)C)cc1` [Example 69, 0-isopropyl-N,β,β-trimethyl-D-tyrosyl-N^1-[(1S,2E)-3-carboxy-1-isopropylbut-2-enyl]-N^1,3-dimethyl-L-valinamide]: in the data set with KB-8-5 (MDR1+) [1], the “Ratio KB85/KB” value turned out to be 2.8. For the same compound, the IC50 came out at 2340 nM in the data set with KB-V1 (MDR1++) [2], 55 nM in the data set with KB-3-1 (setting [5]) and 151 nM with KB-8-5 (MDR1+) [4]. Also, the “Ratio KBV1/KB” value with KB-V1 (MDR1++) [3] was 42.6.

Consider epothilone B, for which, in the data set on A549.EpoB40, the “resistance of A549.EpoB40 cells” value is recorded as 107 fold. Besides, the IC50 was determined as 0.63 ± 0.08 nM in the data set with KB-3-1 (KB-3-1 parental, Table 8, read-out: KB-3-1 IC50) and 2.37 ± 2.2 nM in the data set with KB-HTI-4.0. Moreover, the “(RR) relative resistance vs. parental cells” value in the data set on KB-HTI-4.0 is given as “(4)”.

The values above are taken from patent US20040121965A1, “Method of treating resistant tumors” (Wyeth Holdings Corporation, priority 2002, published 2004).
